Source: patent US11066403B2, “Solid form of azetidine derivative and preparation method therefor and use thereof” (SICHUAN KELUN-BIOTECH BIOPHARMACEUTICAL CO., LTD., priority 2017, dated 2021)

Key:
[1] = Viscous fluidity test (bulk density, angle of repose); assay type: physicochemical; settings: for angle of repose: funnel method, tan α=H/R; for most apparent density (bulk density): without applying any external force
Procedure: (§1) A measuring container was filled with crystalline form B (1.97 g) of the compound of Formula (I), and the volume was determined to be 7.62 ml without applying any external force. The most apparent density (i.e., bulk density) was calculated to be 0.26 g/ml. The powder was slowly added into a funnel from above so that the material leaking from the bottom of the funnel formed a conical stack on the horizontal surface, and the diameter of the bottom of the cone (2R) and the height of the cone (H) were measured to be 3.59 cm and 1.79 cm, respectively. And the angle of repose was calculated to be 45 degrees according to the formula for calculating the angle of repose (tan α=H/R).
as §1, with “The” for “A measuring container was filled with crystalline form B (1.97 g) of the compound of Formula (I), and the volume was determined to be 7.62 ml without applying any external force. The”, “0.43” for “0.26”, “cone” for “cone (H)”, “2.91” for “3.59”, “1.46” for “1.79”

[2] = Cytotoxicity (MTS) in HK-2; assay type: cell-based; settings: HK-2 cells, human proximal tubular cell, 40 h incubation
Procedure: (§2) The cells were plated at a concentration of 2×10^4 cells/well and incubated for 4 h at 37° C. in a 5% CO2 incubator. The crystalline form of the compound of Formula (I) of the present invention was added, and incubation was continued for 40 h. The incubation solution was removed, and a complete medium was added (100 μl/well) to each test well and incubated in the incubator for 0.5 to 1 h. Then, MTS solution was added (10 μl/well) thereto, and incubation was continued for 4 h in the incubator. The absorbance at 450 nm was measured, and the IC50 value was calculated.

[3] = Physicochemical stability (high temperature, high humidity, light; XRPD and HPLC); settings: XRPD
[4] = Cytotoxicity (MTS) in N2a; assay type: cell-based; settings: mouse, N2a neuroblastoma cells, neuroblastoma cell, 40 h incubation
Procedure: as §2

[5] = system: Collagen-Induced Arthritis (CIA) model; assay: Efficacy in collagen-induced arthritis (CIA) model in rats; assay type: in vivo, rat; parameters: Mean pathological score, Joint inflammation (X ± SD) / Mean pathological score, Joint cartilage erosion (X ± SD) / Mean pathological score, Synovial hyperplasia/pannus (X ± SD): scale not given here; settings: for Mean pathological score, Joint cartilage erosion (X ± SD) / Mean pathological score, Joint inflammation (X ± SD) / Mean pathological score, Synovial hyperplasia/pannus (X ± SD): hind paw joints
Procedure: After female Lewis rats were immunized twice with bovine type II collagen to form a CIA model, the rats were randomly divided into 4 groups (the vehicle group, and the groups of the crystalline form of the compound of Formula (I) of the present invention (1 mg/kg, 3 mg/kg, 10 mg/kg), respectively), and unmodeled rats were taken as the normal group. The corresponding drugs were administered by gavage once a day for 14 days (D15-D28). The hind paw was scored for arthritis index during the administration (the results are shown in Table 5); and after the end of the experiment, the ankle joint was taken for pathologic analysis (the average pathological scores of the hind paw joints of the rats are shown in Table 6).

hERG potassium channel = target: T1, hERG potassium channel (Homo sapiens, UniProt Q12809); assay: hERG test (Predictor hERG Fluorescence Polarization Assay Kit); assay type: binding
T1 construct: purchased Thermo Fisher
Procedure: The effects of the crystalline forms of the compound of Formula (I) on hERG potassium channel were determined using a biochemical hERG assay kit based on fluorescence polarization technology (Predictor™ hERG Fluorescence Polarization Assay Kit, Thermo Fisher) to assess the potential of the crystalline form of the compound of Formula (I) in inducing cardiac QT interval prolongation.

[6] = system: STAT3 phosphorylation in Hep3B cells; assay: Effect on JAK/STAT signaling pathway in Hep3B cells (IL-6 induced p-STAT3, AlphaLISA); assay type: cell-based; settings: Homo sapiens, 0.5 h, IL-6 stimulation 30 min
Procedure: After incubating the crystalline form of the compound of Formula (I) of the present invention with Hep3B cells in a 37° C., 5% CO2 incubator for 15 min, […] IL-6 was added. Incubation was continued for 30 min, and the cells were lysed. The lysate was added to AlphaLISA SureFire Ultra p-STAT3 (Tyr705) assay kit (PerkinElmer), incubated at room temperature in dark, and the signals emitted by the receptor microbeads after energy absorption were measured, and the half inhibitory concentration (IC50) of inhibiting STAT3 phosphorylation was calculated.

TYK2 = TYK2 (Homo sapiens, UniProt P29597); assay: TYK2 enzymatic activity inhibition assay (HTRF KinEASE-TK); assay type: biochemical
Procedure: (§3) The crystalline form of the compound of Formula (I), an enzyme, a substrate and ATP were diluted to desired concentrations with the buffer in the HTRF® KinEASE™-TK kit (Cisbio). The former three agents were added into a multiple well plate, and incubated at room temperature after being mixed homogeneously. ATP was added to initiate the kinase reaction, and incubation at room temperature was performed. The test reagent in the kit was used to terminate the reaction, and incubation was continued at room temperature. After the incubation was completed, fluorescence signals at 620 nm and 665 nm were measured using a BMG PHERAstar FS microplate reader, and the half inhibitory concentration (IC50) values were calculated.

JAK3 = target: T2, JAK3 (Homo sapiens, UniProt P52333); assay: JAK3 enzymatic activity inhibition assay (HTRF KinEASE-TK); assay type: biochemical
T2 sequence (P52333 1-1124): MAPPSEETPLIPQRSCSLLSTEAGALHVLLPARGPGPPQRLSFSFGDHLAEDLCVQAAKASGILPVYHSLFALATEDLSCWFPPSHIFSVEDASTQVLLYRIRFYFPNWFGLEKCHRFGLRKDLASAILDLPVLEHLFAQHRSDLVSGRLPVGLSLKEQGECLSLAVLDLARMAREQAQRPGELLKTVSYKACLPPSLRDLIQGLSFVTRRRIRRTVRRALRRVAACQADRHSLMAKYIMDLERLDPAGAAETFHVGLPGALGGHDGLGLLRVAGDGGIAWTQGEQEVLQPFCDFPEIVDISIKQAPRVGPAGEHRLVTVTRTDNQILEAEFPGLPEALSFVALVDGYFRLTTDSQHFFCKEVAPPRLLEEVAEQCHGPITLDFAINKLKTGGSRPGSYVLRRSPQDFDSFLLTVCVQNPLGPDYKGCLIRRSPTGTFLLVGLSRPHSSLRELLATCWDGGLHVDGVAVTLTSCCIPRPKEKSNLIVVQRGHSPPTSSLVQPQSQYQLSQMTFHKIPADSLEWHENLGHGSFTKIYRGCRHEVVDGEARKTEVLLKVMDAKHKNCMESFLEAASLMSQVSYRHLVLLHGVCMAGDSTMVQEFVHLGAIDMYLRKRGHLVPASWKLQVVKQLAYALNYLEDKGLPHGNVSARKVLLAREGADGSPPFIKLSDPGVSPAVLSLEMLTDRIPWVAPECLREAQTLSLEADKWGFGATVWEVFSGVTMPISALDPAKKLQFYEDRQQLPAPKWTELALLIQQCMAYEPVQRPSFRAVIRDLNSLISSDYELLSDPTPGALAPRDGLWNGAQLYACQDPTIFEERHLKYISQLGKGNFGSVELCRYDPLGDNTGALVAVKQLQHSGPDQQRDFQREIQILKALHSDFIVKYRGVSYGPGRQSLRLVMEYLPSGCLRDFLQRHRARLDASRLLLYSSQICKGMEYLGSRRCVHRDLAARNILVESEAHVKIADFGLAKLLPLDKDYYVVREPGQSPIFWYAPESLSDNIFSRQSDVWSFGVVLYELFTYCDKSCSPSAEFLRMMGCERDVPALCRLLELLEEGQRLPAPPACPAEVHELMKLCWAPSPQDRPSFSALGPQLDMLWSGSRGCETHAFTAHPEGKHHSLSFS
Procedure: as §3

[7] = Cytotoxicity (MTS) in HEK293; assay type: cell-based; settings: HEK293 cells, human embryonic kidney cell, 40 h incubation
Procedure: as §2

[8] = high humidity (92.5%) for 5 days
[9] = high temperature (60° C.) for 5 days
[10] = 1 mg/kg gavage once a day for 14 days
[11] = 3 mg/kg gavage once a day for 14 days
[12] = 10 mg/kg gavage once a day for 14 days

T1 sequence (Q12809 whole entry): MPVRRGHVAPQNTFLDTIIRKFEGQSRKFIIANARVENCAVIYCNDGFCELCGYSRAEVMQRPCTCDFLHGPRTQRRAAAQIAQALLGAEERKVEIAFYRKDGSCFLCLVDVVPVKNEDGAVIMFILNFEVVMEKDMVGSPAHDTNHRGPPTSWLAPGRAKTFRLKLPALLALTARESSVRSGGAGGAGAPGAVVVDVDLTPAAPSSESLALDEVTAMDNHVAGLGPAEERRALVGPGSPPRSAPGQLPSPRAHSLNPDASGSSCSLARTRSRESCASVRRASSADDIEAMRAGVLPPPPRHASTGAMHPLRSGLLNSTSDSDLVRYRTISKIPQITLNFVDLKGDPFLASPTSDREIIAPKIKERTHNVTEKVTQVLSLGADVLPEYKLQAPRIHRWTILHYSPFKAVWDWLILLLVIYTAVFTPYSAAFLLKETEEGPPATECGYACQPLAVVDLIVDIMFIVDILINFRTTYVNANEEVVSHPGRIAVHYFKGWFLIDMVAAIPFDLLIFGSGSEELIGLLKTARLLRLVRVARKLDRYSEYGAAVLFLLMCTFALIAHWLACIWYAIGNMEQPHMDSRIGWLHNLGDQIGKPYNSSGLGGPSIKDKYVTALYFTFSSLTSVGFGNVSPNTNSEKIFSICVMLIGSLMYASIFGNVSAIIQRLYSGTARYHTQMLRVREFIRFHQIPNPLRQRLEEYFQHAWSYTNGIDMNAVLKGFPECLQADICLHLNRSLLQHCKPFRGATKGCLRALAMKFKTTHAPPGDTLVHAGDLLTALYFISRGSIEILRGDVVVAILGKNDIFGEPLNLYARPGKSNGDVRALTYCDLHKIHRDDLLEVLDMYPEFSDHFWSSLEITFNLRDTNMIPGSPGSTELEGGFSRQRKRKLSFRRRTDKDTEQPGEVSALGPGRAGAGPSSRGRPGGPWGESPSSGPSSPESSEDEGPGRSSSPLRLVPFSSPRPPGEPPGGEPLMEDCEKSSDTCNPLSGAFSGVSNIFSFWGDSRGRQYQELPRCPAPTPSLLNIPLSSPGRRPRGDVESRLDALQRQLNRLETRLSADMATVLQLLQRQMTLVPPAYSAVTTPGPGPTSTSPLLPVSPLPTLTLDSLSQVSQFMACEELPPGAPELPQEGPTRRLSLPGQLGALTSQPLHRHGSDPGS
Sequence of TYK2 (P29597 whole entry, species assumed): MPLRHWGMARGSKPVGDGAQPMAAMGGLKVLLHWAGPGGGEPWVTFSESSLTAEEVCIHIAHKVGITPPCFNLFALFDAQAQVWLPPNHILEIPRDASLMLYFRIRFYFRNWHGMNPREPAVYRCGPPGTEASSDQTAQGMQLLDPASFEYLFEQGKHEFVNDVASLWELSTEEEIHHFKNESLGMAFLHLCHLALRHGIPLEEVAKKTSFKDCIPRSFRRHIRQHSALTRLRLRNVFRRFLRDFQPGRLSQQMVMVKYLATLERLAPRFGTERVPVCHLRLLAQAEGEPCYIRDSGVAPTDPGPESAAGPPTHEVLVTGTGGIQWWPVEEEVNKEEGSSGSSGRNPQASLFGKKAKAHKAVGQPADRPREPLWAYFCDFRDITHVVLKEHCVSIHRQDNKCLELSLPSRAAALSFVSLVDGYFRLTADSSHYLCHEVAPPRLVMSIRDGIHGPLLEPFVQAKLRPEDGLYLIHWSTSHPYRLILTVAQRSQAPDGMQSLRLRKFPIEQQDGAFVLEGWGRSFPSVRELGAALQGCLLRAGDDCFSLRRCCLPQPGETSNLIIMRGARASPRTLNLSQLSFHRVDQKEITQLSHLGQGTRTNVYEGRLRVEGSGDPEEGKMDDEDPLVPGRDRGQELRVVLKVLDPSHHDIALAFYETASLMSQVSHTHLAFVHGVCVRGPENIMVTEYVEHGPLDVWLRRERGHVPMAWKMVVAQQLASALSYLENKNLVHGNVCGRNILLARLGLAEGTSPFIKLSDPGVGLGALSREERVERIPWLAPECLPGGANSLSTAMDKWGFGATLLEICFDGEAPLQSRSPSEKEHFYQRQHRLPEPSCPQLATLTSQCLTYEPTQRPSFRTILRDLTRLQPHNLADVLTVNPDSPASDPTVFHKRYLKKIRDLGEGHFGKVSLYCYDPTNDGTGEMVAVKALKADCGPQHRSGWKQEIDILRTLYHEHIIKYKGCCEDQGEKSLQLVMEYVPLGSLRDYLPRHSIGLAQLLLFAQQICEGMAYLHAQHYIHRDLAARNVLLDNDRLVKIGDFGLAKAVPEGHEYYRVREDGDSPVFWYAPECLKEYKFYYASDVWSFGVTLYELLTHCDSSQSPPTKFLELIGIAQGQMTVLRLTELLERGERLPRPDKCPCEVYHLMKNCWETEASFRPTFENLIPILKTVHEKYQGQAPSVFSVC

SMILES: CCS(=O)(=O)N1CC(CC#N)(n2cc(-c3ccnc4[nH]ccc34)cn2)C1 [Crystalline form A, 2-(3-(4-(1H-pyrrolo[2,3-b]pyridin-4-yl)-1H-pyrazol-1-yl)-1-(ethylsulfonyl)azetidin-3-yl)acetonitrile]
- particle fluidity [1]: good particle fluidity
- angle of repose [1]: 45 degrees
- most apparent density (bulk density) [1]: 0.43 g/mL
- IC50 at 40 h [2]: 23.1 µM
- Changes in crystalline form [3, 8]: No
- Changes in crystalline form [3, 9]: No
- Changes in crystalline form ([3]; light condition for 5 days): No
- IC50 at 40 h [4]: 33.6 µM
- Effect on mean pathological score of synovial hyperplasia/pannus (in words) ([5]; 1 mg/kg): to some extent
- Effect on mean pathological scores of joint inflammation and joint cartilage erosion (in words) ([5]; 1 mg/kg): significantly reduce
- Mean pathological score, Joint cartilage erosion (X ± SD) [5, 10]: 5.10 ± 1.52
- Mean pathological score, Joint inflammation (X ± SD) [5, 10]: 4.00 ± 1.25
- Mean pathological score, Synovial hyperplasia/pannus (X ± SD) [5, 10]: 6.90 ± 0.99
- Effect on mean pathological scores of joint inflammation, joint cartilage erosion and synovial hyperplasia/pannus (in words) ([5]; 3 mg/kg): significantly reduce
- Mean pathological score, Joint cartilage erosion (X ± SD) [5, 11]: 2.20 ± 1.93
- Mean pathological score, Joint inflammation (X ± SD) [5, 11]: 2.60 ± 1.90
- Mean pathological score, Synovial hyperplasia/pannus (X ± SD) [5, 11]: 4.80 ± 1.40
- Effect on mean pathological scores of joint inflammation, joint cartilage erosion and synovial hyperplasia/pannus (in words) ([5]; 10 mg/kg): significantly reduce
- Mean pathological score, Joint cartilage erosion (X ± SD) [5, 12]: 0.10 ± 0.32
- Mean pathological score, Joint inflammation (X ± SD) [5, 12]: 0.30 ± 0.67
- Mean pathological score, Synovial hyperplasia/pannus (X ± SD) [5, 12]: 2.20 ± 0.42
- inhibition at 2 h, 30 µM (hERG potassium channel; human, probe tracer with high hERG affinity, at 30 μM, read-out: hERG inhibition rate): < 50%
- IC50 (hERG potassium channel; test concentration 3, 10 and 30 μM, 25° C., 2 h): > 30 µM
- IC50 [6]: 0.123 ± 0.0183 µM
- IC50 (TYK2): 0.0228 ± 0.00403 µM
- IC50 (JAK3): 0.0161 ± 0.00155 µM
- IC50 at 40 h [7]: > 50 µM

SMILES: CCS(=O)(=O)N1CC(CC#N)(n2cc(-c3ccnc4[nH]ccc34)cn2)C1 [Crystalline form B, 2-(3-(4-(1H-pyrrolo[2,3-b]pyridin-4-yl)-1H-pyrazol-1-yl)-1-(ethylsulfonyl)azetidin-3-yl)acetonitrile]
- particle fluidity [1]: good particle fluidity
- angle of repose [1]: 45 degrees
- most apparent density (bulk density) [1]: 0.26 g/mL
- Changes in crystalline form [3, 8]: No
- Changes in crystalline form [3, 9]: No
- Changes in crystalline form ([3]; light condition for 5 days): No
